One experiment concerns the target Human Cot (Homo sapiens (Human), UniProt P41279). Briefly: High Throughput Cot Biochemical Assay. Conditions: IC50 HTRF, Cot HTRF (TR-FRET) biochemical assay. A general note: Time-resolved FRET reads energy transfer from a long-lived donor to a nearby acceptor.
Another experiment relates to TNFα. Put plainly: Cot Monocyte TNFα Cell Based Assay. As to conditions: Homo sapiens, Monocyte, read-out: EC50 TNF, LPS-stimulated human monocytes, TNFα.

Chain of Human Cot (P41279 30-397): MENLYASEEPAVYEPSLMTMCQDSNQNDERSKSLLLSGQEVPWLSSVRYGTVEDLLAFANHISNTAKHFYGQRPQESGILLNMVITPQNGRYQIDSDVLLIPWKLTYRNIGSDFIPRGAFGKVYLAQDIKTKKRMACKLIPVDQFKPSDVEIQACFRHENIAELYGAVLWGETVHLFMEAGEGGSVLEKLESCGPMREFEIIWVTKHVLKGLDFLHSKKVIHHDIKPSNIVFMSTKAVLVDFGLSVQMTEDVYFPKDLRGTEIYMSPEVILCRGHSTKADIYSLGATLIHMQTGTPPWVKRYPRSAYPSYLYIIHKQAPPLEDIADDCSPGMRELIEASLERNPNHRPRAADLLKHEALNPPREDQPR

With `CC(C)(C)CNc1c(C#N)cnc2c(C#N)cc(N[C@@H](c3cn(C4CC4)nn3)c3cccc4ncsc34)cc12` [Example 410, (R)-6-((benzo[d]thiazol-7-yl(1-cyclopropyl-1H-1,2,3-triazol-4-yl)methyl)amino)-4-(neopentyl-amino)quinoline-3,8-dicarbonitrile], the IC50 against Human Cot was determined as 113 nM. Further, in the experiment on TNFα, the EC50 amounted to 1000 nM.

For `CC[C@@H](Nc1c(C#N)cnc2c(C#N)cc(N[C@H](c3cn(C4CC4)nn3)c3cccc4ncsc34)cc12)c1ccccc1` [Example 411, 6-(((S)-benzo[d]thiazol-7-yl(1-cyclopropyl-1H-1,2,3-triazol-4-yl)methyl)amino)-4-(((R)-1-phenylpropyl)amino)quinoline-3,8-dicarbonitrile], the IC50 on Human Cot was found to be 5 nM. In addition, the concentration giving a half-maximal response (EC50) with TNFα amounted to 76 nM.

At Human Cot, `CC[C@@H](Nc1c(C#N)cnc2c(C#N)cc(N[C@H](c3cn(C4(C(F)(F)F)CC4)nn3)c3cccc4ncsc34)cc12)c1ccccc1` [Example 412, 6-(((S)-benzo[d]thiazol-7-yl(1-(1-(trifluoromethyl)-cyclopropyl)-1H-1,2,3-triazol-4-yl)methyl)amino)-4-(((R)-1-phenylpropyl)amino)quinoline-3,8-dicarbonitrile] yielded an IC50 of 7 nM. In addition, the EC50 in the experiment on TNFα was 157 nM.

For `[2H]C(Nc1cc(Cl)c2ncc(C#N)c(N[C@H](CCC#N)c3ccccc3)c2c1)(c1cn(C2(C(F)(F)F)CC2)nn1)c1ccc(F)nc1C` (stereo partly drawn) [Example 413, 8-chloro-4-(((R)-3-cyano-1-phenyl-propyl)amino)-6-(((6-fluoro-2-methyl-pyridin-3-yl)(1-(1-(trifluoromethyl)-cyclopropyl)-1H-1,2,3-triazol-4-yl)methyl-d)amino)quinoline-3-carbonitrile], the IC50 against Human Cot was determined as 4 nM. In addition, the EC50 with TNFα worked out at 44 nM.

On to `N#CCC[C@@H](Nc1c(C#N)cnc2c(C#N)cc(N[C@H](c3cn(C4CC4)nn3)c3csc4c3CCN(C3COC3)C4)cc12)c1ccccc1` [Example 414, 4-(((R)-3-cyano-1-phenylpropyl)amino)-6-(((S)-(1-cyclopropyl-1H-1,2,3-triazol-4-yl)(6-(oxetan-3-yl)-4,5,6,7-tetrahydro-thieno[2,3-c]pyridin-3-yl)methyl)amino)-quinoline-3,8-dicarbonitrile], for which inhibition on Human Cot was half-maximal at 1 nM (IC50). The EC50 in the experiment with TNFα came to 35 nM.

With `CC(C)(C)CNc1c(C#N)cnc2c(Cl)cc(N[C@H](c3cn(C4(C#N)CC4)nn3)c3cccc4ncsc34)cc12` [Example 415, (S)-6-((benzo[d]thiazol-7-yl(1-(1-cyanocyclopropyl)-1H-1,2,3-triazol-4-yl)methyl)amino)-8-chloro-4-(neopentylamino)quinoline-3-carbonitrile], at Human Cot, the IC50 stood at 3 nM. The EC50 in the experiment on TNFα is 67 nM.

Consider `CC(C)(C)CNc1c(C#N)cnc2c(Cl)cc(N[C@H](c3cn(C4(C(N)=O)CC4)nn3)c3cccc4ncsc34)cc12` [Example 416, (S)-1-(4-(benzo[d]thiazol-7-yl((8-chloro-3-cyano-4-(neopentylamino)quinolin-6-yl)amino)methyl)-1H-1,2,3-triazol-1-yl)cyclopropane-1-carboxamide], for which, on Human Cot, half-maximal inhibition (IC50) required 2 nM. In addition, the EC50 with TNFα amounted to 124 nM.

At Human Cot, `CC(C)(C)CNc1c(C#N)cnc2c(Cl)cc(N[C@H](c3cn(C4(C(F)(F)F)CC4)nn3)c3cccc4ncsc34)cc12` [Example 417, (S)-6-((benzo[d]thiazol-7-yl(1-(1-(trifluoromethyl)cyclopropyl)-1H-1,2,3-triazol-4-yl)methyl)amino)-8-chloro-4-(neopentylamino)quinoline-3-carbonitrile] came in with an IC50 of 9 nM. Further, the EC50 in the experiment with TNFα was found to be 218 nM.

As to `CC(C)(C)CNc1c(C#N)cnc2c(Cl)cc(N[C@H](c3cn(C4CC4)nn3)c3cccc4ncsc34)cc12` [Example 418, (S)-6-((benzo[d]thiazol-7-yl(1-cyclopropyl-1H-1,2,3-triazol-4-yl)methyl)amino)-8-chloro-4-(neopentylamino)quinoline-3-carbonitrile], it took 2 nM to reach half-maximal inhibition against Human Cot (IC50). For the same compound, the EC50 with TNFα turned out to be 45 nM.

The compound `CC(C)(C)CNc1c(C#N)cnc2c(Cl)cc(N[C@H](c3cn(C4CCN(C(C)(C)C)CC4)nn3)c3cccc4ncsc34)cc12` [Example 419, (S)-6-((benzo[d]thiazol-7-yl(1-(1-(tert-butyl)piperidin-4-yl)-1H-1,2,3-triazol-4-yl)methyl)amino)-8-chloro-4-(neopentylamino)quinoline-3-carbonitrile] came in with an IC50 at Human Cot of 3 nM. Moreover, the EC50 in the experiment on TNFα came to 49 nM.

At Human Cot, `CC(C)(C)CNc1c(C#N)cnc2c(C#N)cc(N[C@H](c3cn(C4CCN(C(C)(C)C)CC4)nn3)c3cccc4ncsc34)cc12` [Example 420, (S)-6-((benzo[d]thiazol-7-yl(1-(1-(tert-butyl)piperidin-4-yl)-1H-1,2,3-triazol-4-yl)methyl)amino)-4-(neopentyl-amino)quinoline-3,8-dicarbonitrile] had an IC50 of 2 nM. Further, the EC50 in the experiment on TNFα stood at 25 nM.

On Human Cot, `CC(C)(C)CNc1c(C#N)cnc2c(Cl)cc(N[C@H](c3cn(C4(C(F)F)CC4)nn3)c3cccc4ncsc34)cc12` [Example 421, (S)-6-((benzo[d]thiazol-7-yl(1-(1-(difluoromethyl)cyclopropyl)-1H-1,2,3-triazol-4-yl)methyl)amino)-8-chloro-4-(neopentylamino)quinoline-3-carbonitrile] came in with a concentration for half-maximal inhibition (IC50) of 4 nM. For the same compound, in the experiment with TNFα, the EC50 worked out at 100 nM.

Take `CC(C)(C)CNc1c(C#N)cnc2c(Cl)cc(N[C@H](c3cn(C4CC4)nn3)c3cccn4nccc34)cc12` [Example 422, (S)-8-chloro-6-(((1-cyclopropyl-1H-1,2,3-triazol-4-yl)(pyrazolo[1,5-a]pyridin-4-yl)methyl)amino)-4-(neopentylamino)-quinoline-3-carbonitrile]: the IC50 against Human Cot was found to be 2 nM. The EC50 with TNFα came out at 57 nM.

Compound `[2H][C@](Nc1cc(Cl)c2ncc(C#N)c(NCC(C)(C)C)c2c1)(c1ccc(F)nc1)c1cn(CC(=O)NS(C)(=O)=O)nn1` [Example 425, (S)-2-(4-(((8-chloro-3-cyano-4-(neopentylamino)quinolin-6-yl)amino)(6-fluoropyridin-3-yl)methyl-d)-1H-1,2,3-triazol-1-yl)-N-(methyl-sulfonyl)acetamide] showed an IC50 on Human Cot of 7 nM. For the same compound, the EC50 with TNFα was 1000 nM.

`Cn1cc2c([C@H](Nc3cc(Cl)c4ncc(C#N)c(NCC(C)(C)C)c4c3)c3cn(C4CC4)nn3)cccc2n1` [Example 426, (S)-8-chloro-6-(((1-cyclopropyl-1H-1,2,3-triazol-4-yl)(2-methyl-2H-indazol-4-yl)methyl)amino)-4-(neopentylamino)-quinoline-3-carbonitrile] displayed a concentration for half-maximal inhibition (IC50) against Human Cot of 2 nM. Moreover, the 50% effective concentration (EC50) in the experiment with TNFα came to 95 nM.

`Cc1nc2cccc([C@H](Nc3cc(C#N)c4ncc(C#N)c(NCC(C)(C)C)c4c3)c3cn(C4CC4)nn3)c2s1` [Example 427, (S)-6-(((1-cyclopropyl-1H-1,2,3-triazol-4-yl)(2-methylbenzo[d]thiazol-7-yl)methyl)amino)-4-(neopentylamino)-quinoline-3,8-dicarbonitrile] returned an IC50 on Human Cot of 2 nM. For the same compound, the EC50 in the experiment with TNFα is 41 nM.

At Human Cot, `Cc1nc2cccc([C@H](Nc3cc(C#N)c4ncc(C#N)c(NCC(C)(C)C)c4c3)c3cn(C4(C(F)(F)F)CC4)nn3)c2s1` [Example 430, (S)-6-(((2-methylbenzo[d]thiazol-7-yl)(1-(1-(trifluoromethyl)cyclopropyl)-1H-1,2,3-triazol-4-yl)methyl)amino)-4-(neopentylamino)quinoline-3,8-dicarbonitrile] showed an IC50 of 5 nM. Besides, in the experiment on TNFα, the EC50 was determined as 214 nM.

For the compound `Cc1nc(F)ccc1[C@H](Nc1cc(Cl)c2ncc(C#N)c(NCC(C)(C)C)c2c1)c1cn(C2(C(F)(F)F)CC2)nn1` [Example 432, (S)-8-chloro-6-(((6-fluoro-2-methyl-pyridin-3-yl)(1-(1-(trifluoromethyl)-cyclopropyl)-1H-1,2,3-triazol-4-yl)methyl)amino)-4-(neopentylamino)-quinoline-3-carbonitrile], the IC50 at Human Cot was found to be 6 nM. In addition, the EC50 in the experiment with TNFα was 89 nM.

The compound `CC(C)(C)CNc1c(C#N)cnc2c(C#N)cc(N[C@H](c3cn(C4CC4)nn3)c3csc4c3CCN(C3COC3)C4)cc12` [Example 433, (S)-6-(((1-cyclopropyl-1H-1,2,3-triazol-4-yl)(6-(oxetan-3-yl)-4,5,6,7-tetrahydrothieno[2,3-c]pyridin-3-yl)methyl)amino)-4-(neopentylamino)-quinoline-3,8-dicarbonitrile] returned an IC50 against Human Cot of 1 nM. Also, the concentration giving a half-maximal response (EC50) with TNFα was found to be 65 nM.

For the compound `CC(C)(C)CNc1c(C#N)cnc2c(C#N)cc(N[C@H](c3cn(C4(C)CC4)nn3)c3cccc4ncsc34)cc12` [Example 435, (S)-6-((benzo[d]thiazol-7-yl(1-(1-methylcyclopropyl)-1H-1,2,3-triazol-4-yl)methyl)amino)-4-(neopentylamino)-quinoline-3,8-dicarbonitrile], the IC50 against Human Cot came out at 1 nM. For the same compound, in the experiment with TNFα, the EC50 turned out to be 24 nM.

On Human Cot, `CC(C)(C)CNc1c(C#N)cnc2c(Cl)cc(N[C@H](c3cn(C4CC4)nn3)c3ccc(F)nc3Cl)cc12` [Example 436, (S)-8-chloro-6-(((2-chloro-6-fluoro-pyridin-3-yl)(1-cyclopropyl-1H-1,2,3-triazol-4-yl)methyl)amino)-4-(neo-pentylamino)quinoline-3-carbonitrile] came in with an IC50 of 5 nM. In addition, the EC50 with TNFα was 289 nM.

In turn, `CC(C)(C)CNc1c(C#N)cnc2c(Cl)cc(N[C@H](c3cn(C4CC4)nn3)c3cccc4ncccc34)cc12` [Example 437, (S)-8-chloro-6-(((1-cyclopropyl-1H-1,2,3-triazol-4-yl)(quinolin-5-yl)methyl)amino)-4-(neopentylamino)quinoline-3-carbonitrile] displayed a concentration for half-maximal inhibition (IC50) against Human Cot of 2 nM. Besides, the concentration for a half-maximal effect (EC50) in the experiment with TNFα was determined as 82 nM.

Broadly, the IC50 is the concentration at which inhibition is half-maximal. As a reminder, the EC50 is the concentration giving half of the maximal effect.

The values above are taken from patent publication US11066414B2, “Cot modulators and methods of use thereof” (Gilead Sciences, Inc., priority 2015, dated 2021).
